Source: ChEMBL document CHEMBL1201862, “PubChem BioAssay data set” (2004)
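48-hour exposure; five concentrations; linearly interpolated endpoints. GI50: concentration for 50% inhibition of growth.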 Active and inactive are the calls of the source. Rule as the data show it: active = GI50 up to about 1.1 µM and inactive = higher.

Key:
Assay in all cases: growth of human tumour cells (NCI), 48 h
HT-29 = tested on: HT-29
SF-268 = tested on: SF-268
A498 = tested on: A498
IGROV-1 = tested on: IGROV-1
HOP-62 = tested on: HOP-62
SF-539 = tested on: SF-539
COLO 205 = tested on: COLO 205
SK-MEL-5 = tested on: SK-MEL-5
M14 = tested on: M14
SW-620 = tested on: SW-620
OVCAR-3 = tested on: OVCAR-3
TK-10 = tested on: TK-10
MOLT-4 = tested on: MOLT-4
CCRF-CEM = tested on: CCRF-CEM
BT-549 = tested on: BT-549
A549 = tested on: A549
PC-3 = tested on: PC-3
NCI-H460 = tested on: NCI-H460
SN12C = tested on: SN12C
NCI-H226 = tested on: NCI-H226

Structure (SMILES) | GI50 (HT-29) | GI50 (SF-268) | GI50 (A498) | GI50 (IGROV-1) | GI50 (HOP-62) | GI50 (SF-539) | GI50 (COLO 205) | GI50 (SK-MEL-5) | GI50 (M14) | GI50 (SW-620) | GI50 (OVCAR-3) | GI50 (TK-10) | GI50 (MOLT-4) | GI50 (CCRF-CEM) | GI50 (BT-549) | GI50 (A549) | GI50 (PC-3) | GI50 (NCI-H460) | GI50 (SN12C) | GI50 (NCI-H226)
COC(=O)c1c2c(c3[nH]c4ccccc4c3c1C(=O)OC)C(=O)C1=C(C2=O)C2(Cl)C(Cl)C(Cl)C1(Cl)C2(Cl)Cl (configuration not stated) | 2.55 µM (inactive) | 0.436 µM (active) | 0.432 µM (active) | 2.69 µM (inactive) | 3.76 µM (inactive) | 2.07 µM (inactive) | 1.81 µM (inactive) | 1.31 µM (inactive) | 1.46 µM (inactive) | 0.353 µM (active) | 2.33 µM (inactive) | 3.56 µM (inactive) | 1.17 µM (inactive) | 1.89 µM (inactive) | 1.96 µM (inactive) | 3.21 µM (inactive) | 1.86 µM (inactive) | 3.2 µM (inactive) | 1.94 µM (inactive) | –
COc1ccccc1N1C(=O)/C(=C\c2cccc(Oc3ccccc3)c2)SC1c1ccccc1 (configuration not stated) | 32.4 µM (inactive) | 38 µM (inactive) | > 100 µM (inactive) | 21.1 µM (inactive) | 73.3 µM (inactive) | 34.5 µM (inactive) | 15.3 µM (inactive) | 14.4 µM (inactive) | 24.4 µM (inactive) | 17.8 µM (inactive) | 27.7 µM (inactive) | > 100 µM (inactive) | 31 µM (inactive) | – | 29.8 µM (inactive) | 34.3 µM (inactive) | 58.5 µM (inactive) | 49 µM (inactive) | 30.2 µM (inactive) | –
O=c1c(Cc2c(O)ccc3ccccc23)nnc2sc(-c3nn4c(=O)c(Cc5c(O)ccc6ccccc56)nnc4s3)nn12 | > 100 µM (inactive) | 8.63 µM (inactive) | 42.2 µM (inactive) | > 100 µM (inactive) | 28.5 µM (inactive) | – | – | – | > 100 µM (inactive) | > 100 µM (inactive) | > 100 µM (inactive) | 37.3 µM (inactive) | > 10 µM (inactive) | 30.5 µM (inactive) | 25.4 µM (inactive) | > 100 µM (inactive) | > 100 µM (inactive) | – | > 100 µM (inactive) | –
CCC(CN(C)C)C(=O)c1ccco1 (configuration not stated) | > 100 µM (inactive) | 54.8 µM (inactive) | > 100 µM (inactive) | > 100 µM (inactive) | > 100 µM (inactive) | – | – | – | > 100 µM (inactive) | > 100 µM (inactive) | > 100 µM (inactive) | > 100 µM (inactive) | 22.3 µM (inactive) | – | > 100 µM (inactive) | > 100 µM (inactive) | > 100 µM (inactive) | > 100 µM (inactive) | > 100 µM (inactive) | –
CC(C)(C)OC(=O)C(C1NC(C(=O)O)C(C)(C)S1)N1C(=O)c2ccccc2C1=O (configuration not stated) | > 100 µM (inactive) | > 100 µM (inactive) | > 100 µM (inactive) | > 100 µM (inactive) | > 100 µM (inactive) | > 100 µM (inactive) | > 100 µM (inactive) | > 100 µM (inactive) | > 100 µM (inactive) | > 100 µM (inactive) | > 100 µM (inactive) | > 100 µM (inactive) | > 100 µM (inactive) | > 100 µM (inactive) | > 100 µM (inactive) | > 100 µM (inactive) | > 100 µM (inactive) | > 100 µM (inactive) | > 100 µM (inactive) | –
COc1ccc2c(c1)-c1[nH]c3ccc(OC)cc3c1CC2 | 12.3 µM (inactive) | 14.1 µM (inactive) | – | 13.6 µM (inactive) | 16.3 µM (inactive) | 18.2 µM (inactive) | 18 µM (inactive) | 13.1 µM (inactive) | 15 µM (inactive) | 22.4 µM (inactive) | 17.6 µM (inactive) | 16.8 µM (inactive) | 11 µM (inactive) | 14.3 µM (inactive) | 17.7 µM (inactive) | 14.3 µM (inactive) | 11.4 µM (inactive) | 16.3 µM (inactive) | 14.8 µM (inactive) | 11.8 µM (inactive)
O=c1[nH]nc(Nc2ccc(Cl)cc2)c2nnn(-c3ccc([N+](=O)[O-])cc3)c12 | 25.4 µM (inactive) | 24.3 µM (inactive) | – | 31.6 µM (inactive) | 27.4 µM (inactive) | 17.5 µM (inactive) | 13.3 µM (inactive) | 10.8 µM (inactive) | 49.4 µM (inactive) | 30.9 µM (inactive) | – | 24.7 µM (inactive) | 8.63 µM (inactive) | 7.98 µM (inactive) | 19.2 µM (inactive) | 14.5 µM (inactive) | 18.3 µM (inactive) | 30.6 µM (inactive) | 26.9 µM (inactive) | 42.1 µM (inactive)
CSc1ccc(/C=C2\N=C(c3ccccc3)N(c3nc4c(Cl)cc(Cl)cc4s3)C2=O)cc1 | 19.8 µM (inactive) | 28.2 µM (inactive) | 17 µM (inactive) | 35.3 µM (inactive) | 18.1 µM (inactive) | 34.5 µM (inactive) | 33.4 µM (inactive) | 16.2 µM (inactive) | 25.7 µM (inactive) | 29.4 µM (inactive) | 18.9 µM (inactive) | 39.2 µM (inactive) | 18.6 µM (inactive) | 7.74 µM (inactive) | 21.5 µM (inactive) | 21.4 µM (inactive) | 20.4 µM (inactive) | 25.6 µM (inactive) | 24.8 µM (inactive) | –
